Assays:
[1] = tested on: PO-22; assay: RIA of Set 2 peptides with PO-22; type: binding, mouse; conditions: Set 2 biotinylated peptides 0.8 and 0.08 micromoles/L
Protocol: The binding of the 41 biotinylated peptides as set forth in Table 7 (peptide set 2) to the mouse monoclonal antibodies (PO# series) was assessed as follows: b) Assay 2 (radioimrnunoassay, RIA) using iodinated human inhibin A as tracer. Mabs (at an appropriate dilution, see above) were incubated with iodinated human recombinant inhibin in the presence of biotinylated peptides (0.8 and 0.08 micromoles/L final concentration) overnight at room temperature.

[2] = tested on: PO-6; assay: Solid phase binding of Set 2 peptides to PO-6; design: species or system mouse; key: +++; ΦΦΦ strong effect; +, Φ weak effect; conditions: Set 2 biotinylated peptides 24 micromoles/L
Protocol: The binding of the 41 biotinylated peptides as set forth in Table 7 (peptide set 2) to the mouse monoclonal antibodies (PO# series) was assessed as follows:
a) Assay 1 (solid phase assay). The assay was undertaken as outlined in assay 1 of Example 2. Biotinylated peptides (24 micromoles/L) were initially bound to streptavidin-coated plates. Mab (at an appropriate dilution to give a detectable response, 1:1000, 1:10000 dilution of the culture medium) was then added and incubated for 1.5 hr. The amount of bound Mab was determined using horseradish peroxidase-bound anti-mouse IgG serum and enzyme activity detected at 450-630 nm using an ELISA plate reader.

[3] = tested on: As#128 and/or As#41; assay: Inhibin IFMA with pre-immunoabsorption of antisera by peptides; type: binding, sheep
Source text: This IFMA is used in the measurement of inhibin in serum from women with ovarian cancer and is presented at this juncture as a reference to the following procedures. The IFMA is a sandwich antibody assay in 96-well microtiter plates. The capture antiserum is As #128 and the labeled antiserum As #41, both raised in sheep to the alpha subunit of human inhibin. Sheep As #128 was also boosted with human recombinant 30-kDa inhibin. The microtiter plates were coated with a caprylic acid IgG cut of antiserum #128. Inhibin standard and serum samples were added and incubated for 2 hours at room temperature. A biotinylated antiserum (As #41) which has been immunopurified by absorption to a column of bovine (alpha)C subunit fusion protein (as previously described, Robertson et al., 1997, supra) followed by elution with a glycine (pH 2.5) buffer, was added to bind to the antibody-bound inhibin (2-hour incubation at room temperature). Fluorescently (Eu) labeled-streptavidin that has a high affinity for biotin is added (30 minutes at room temperature) and the Eu-bound streptavidin is counted in a time-resolved fluorimeter. The Eu measured is proportional to the inhibin bound by the two antisera.
As another approach, the competition of combinations of peptides at a maximum saturating dose was assessed in the IFMA (FIGS. 7-9). […] This suppression in binding provides a measure of the contribution of that particular epitope to the assay.

## SGSG WSPSALRLLQRPPE [Peptide 5]
[1]
  PO-22 RIA: ΦΦ
[2]
  PO-6 SPB: +++
[3]; As#41 label pre-absorbed with peptide, As#128 coating antibody: buffer
  % suppression at 2ng inhibin: 67%
[3]; As#128 coating antibody pre-absorbed with peptide(s), As#41 label: buffer
  % suppression at 2ng inhibin: 55%
[3]; both antisera pre-absorbed, label gives peptide(s) on As#128 coating first, then on As#41 label
  % suppression at 2ng inhibin: 73%

Reference: US7511123B2, “Immuno-interactive fragments of the alpha-C subunit of inhibin” (Prince Henry's Institute of Medical Research, priority 1999, dated 2009)
